According to patent US9499550B2 (BRISTOL-MYERS SQUIBB COMPANY, priority 2012, dated 2016):
Where two headings read alike, the source gives them in different places.

Tests used:
[1] = system: HCV genotype 1a (H77 strain) replicon in HUH-7 cells; assay: HCV replicon luciferase reporter assay, genotype 1a; assay type: cell-based; conditions: Hepatitis C virus, Huh-7, 72 h, HCV genotype 1a replicon luciferase, 3 days incubation
Method in brief: (§1)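 Replicon inhibition for both genotypes was measured as Renilla luciferase signal (EnduRen, 7.5 μM final, 2 h) after 3-day, 37° C exposure of replicon-bearing HUH-7 cells in 4% FCS DMEM, 0.5% DMSO. The 1b construct carries S1179I; the 1a H77 construct carries P1496L and S2204I. Twenty-point, 3-fold dilutions were fitted four-parametrically for EC50, and CC50 was taken from multiplexed Cell Titer-Blue.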

[2] = system: HCV genotype 1b (Con1) replicon in HUH-7 cells; assay: HCV replicon luciferase reporter assay, genotype 1b; assay type: cell-based; conditions: Hepatitis C virus, Huh-7, 72 h, HCV genotype 1b replicon luciferase, 3 days incubation
Method in brief: as §1

[3] = GETYPE1A, read-out: LE_1a (EC50, range)
[4] = GETYPE1B, read-out: LE_1b (EC50, range)

CC[C@@H]1C[C@H](C)CC/C=C\[C@@H]2C[C@@]2(C(=O)NS(=O)(=O)C2(C)CC2)NC(=O)[C@@H]2C[C@@H](Oc3nc4cc(OC(C)C)ccc4nc3C(F)(F)F)CN2C(=O)[C@H]1NC(=O)OC(C)(C)C [Compound 4362, tert-butyl ((2R,6S,7R,9R,13aS,14aR,16aS,Z)-7-ethyl-2-((7-isopropoxy-3-(trifluoromethyl)quinoxalin-2-yl)oxy)-9-methyl-14a-(((1-methylcyclopropyl)sulfonyl)carbamoyl)-5,16-dioxo-1,2,3,5,6,7,8,9,10,11,13a,14,14a,15,16,16a-hexadecahydrocyclopropa[e]pyrrolo[1,2-a][1,4]diazacyclopentadecin-6-yl)carbamate]
EC50 ([1]; read-out: LE_1a (EC50, range)): 1.01 to 5 nM | EC50 ([2]; read-out: LE_1b (EC50, range)): 0.51 to 1 nM

CCOc1ccc2nc(C(F)(F)F)c(O[C@@H]3C[C@H]4C(=O)N[C@]5(C(=O)NS(=O)(=O)C6(C)CC6)C[C@H]5/C=C\CC[C@@H](C)C[C@@H](CC)[C@H](NC(=O)OC(C)(C)C)C(=O)N4C3)nc2c1 [Compound 4363, tert-butyl ((2R,6S,7R,9R,13aS,14aR,16aS,Z)-2-((7-ethoxy-3-(trifluoromethyl)quinoxalin-2-yl)oxy)-7-ethyl-9-methyl-14a-(((1-methylcyclopropyl)sulfonyl)carbamoyl)-5,16-dioxo-1,2,3,5,6,7,8,9,10,11,13a,14,14a,15,16,16a-hexadecahydrocyclopropa[e]pyrrolo[1,2-a][1,4]diazacyclopentadecin-6-yl)carbamate]
EC50 ([1]; read-out: LE_1a (EC50, range)): 1.01 to 5 nM | EC50 ([2]; read-out: LE_1b (EC50, range)): 0.1 to 0.5 nM

CC[C@@H]1C[C@H](C)CC/C=C\[C@@H]2C[C@@]2(C(=O)NS(=O)(=O)C2(C)CC2)NC(=O)[C@@H]2C[C@@H](Oc3cc4nc(OC)c(C(F)(F)F)nc4cc3OC)CN2C(=O)[C@H]1NC(=O)OC(C)(C)C [Compound 4365, tert-butyl ((2R,6S,7R,9R,13aS,14aR,16aS,Z)-2-((3,7-dimethoxy-2-(trifluoromethyl)quinoxalin-6-yl)oxy)-7-ethyl-9-methyl-14a-(((1-methylcyclopropyl)sulfonyl)carbamoyl)-5,16-dioxo-1,2,3,5,6,7,8,9,10,11,13a,14,14a,15,16,16a-hexadecahydrocyclopropa[e]pyrrolo[1,2-a][1,4]diazacyclopentadecin-6-yl)carbamate]
EC50 ([1]; read-out: LE_1a (EC50, range)): 5.01 to 35 nM | EC50 ([2]; read-out: LE_1b (EC50, range)): 5.01 to 35 nM

COc1ccc2nc(C)c(O[C@@H]3C[C@H]4C(=O)N[C@]5(C(=O)NS(=O)(=O)C6(C)CC6)C[C@H]5/C=C\CC[C@@H](C)C[C@@H](C)[C@H](NC(=O)OC(C)(C)C(F)(F)F)C(=O)N4C3)nc2c1 [Compound 4366]
EC50 ([1]; GETYPE1A, read-out: LE_1a (EC50)): 0.58 nM | EC50 [1, 3]: 0.51 to 1 nM | EC50 ([2]; GETYPE1B, read-out: LE_1b (EC50)): 0.25 nM | EC50 [2, 4]: 0.1 to 0.5 nM

COc1ccc2nc(OC)c(O[C@@H]3C[C@H]4C(=O)N[C@]5(C(=O)NS(=O)(=O)C6(C)CC6)C[C@H]5/C=C\CC[C@@H](C)C[C@@H](C)[C@H](NC(=O)OC(C)(C)C)C(=O)N4C3)cc2c1 [Compound 4373, tert-butyl ((2R,6S,7R,9R,13aS,14aR,16aS,Z)-2-((2,6-dimethoxyquinolin-3-yl)oxy)-7,9-dimethyl-14a-(((1-methylcyclopropyl)sulfonyl)carbamoyl)-5,16-dioxo-1,2,3,5,6,7,8,9,10,11,13a,14,14a,15,16,16a-hexadecahydrocyclopropa[e]pyrrolo[1,2-a][1,4]diazacyclopentadecin-6-yl)carbamate]
EC50 ([1]; read-out: LE_1a (EC50, range)): 0.1 to 0.5 nM | EC50 ([2]; read-out: LE_1b (EC50, range)): 0.1 to 0.5 nM

COc1ccc2c(O[C@@H]3C[C@H]4C(=O)N[C@]5(C(=O)NS(=O)(=O)C6(C)CC6)C[C@H]5/C=C\CC[C@@H](C)C[C@@H](C)[C@H](NC(=O)OC(C)(C)C)C(=O)N4C3)ncc(F)c2c1 [Compound 4374, tert-butyl ((2R,6S,7R,9R,13aS,14aR,16aS,Z)-2-((4-fluoro-6-methoxyisoquinolin-1-yl)oxy)-7,9-dimethyl-14a-(((1-methylcyclopropyl)sulfonyl)carbamoyl)-5,16-dioxo-1,2,3,5,6,7,8,9,10,11,13a,14,14a,15,16,16a-hexadecahydrocyclopropa[e]pyrrolo[1,2-a][1,4]diazacyclopentadecin-6-yl)carbamate]
EC50 ([1]; read-out: LE_1a (EC50, range)): 1.01 to 5 nM | EC50 ([2]; read-out: LE_1b (EC50, range)): 0.1 to 0.5 nM

COc1ccc2c(Cl)ncc(O[C@@H]3C[C@H]4C(=O)N[C@]5(C(=O)NS(=O)(=O)C6(C)CC6)C[C@H]5/C=C\CC[C@@H](C)C[C@@H](C)[C@H](NC(=O)OC(C)(C)C)C(=O)N4C3)c2c1 [Compound 4375, tert-butyl ((2R,6S,7R,9R,13aS,14aR,16aS,Z)-2-((1-chloro-6-methoxyisoquinolin-4-yl)oxy)-7,9-dimethyl-14a-(((1-methylcyclopropyl)sulfonyl)carbamoyl)-5,16-dioxo-1,2,3,5,6,7,8,9,10,11,13a,14,14a,15,16,16a-hexadecahydrocyclopropa[e]pyrrolo[1,2-a][1,4]diazacyclopentadecin-6-yl)carbamate]
EC50 ([1]; read-out: LE_1a (EC50, range)): 1.01 to 5 nM | EC50 ([2]; read-out: LE_1b (EC50, range)): 0.51 to 1 nM

COc1ccc2nc(OC)c(O[C@@H]3C[C@H]4C(=O)N[C@]5(C(=O)NS(=O)(=O)C6(CF)CC6)C[C@H]5/C=C\CC[C@@H](C)C[C@@H](C)[C@H](NC(=O)OC(C)(C)C)C(=O)N4C3)cc2c1 [Compound 4376, tert-butyl ((2R,6S,7R,9R,13aS,14aR,16aS,Z)-2-((2,6-dimethoxyquinolin-3-yl)oxy)-14a-(((1-(fluoromethyl)cyclopropyl)sulfonyl)carbamoyl)-7,9-dimethyl-5,16-dioxo-1,2,3,5,6,7,8,9,10,11,13a,14,14a,15,16,16a-hexadecahydrocyclopropa[e]pyrrolo[1,2-a][1,4]diazacyclopentadecin-6-yl)carbamate]
EC50 ([1]; read-out: LE_1a (EC50, range)): 1.01 to 5 nM | EC50 ([2]; read-out: LE_1b (EC50, range)): 0.1 to 0.5 nM

CC[C@@H]1C[C@H](C)CC/C=C\[C@@H]2C[C@@]2(C(=O)NS(=O)(=O)C2(C)CC2)NC(=O)[C@@H]2C[C@@H](Oc3cc4cc(OC)ccc4nc3OC)CN2C(=O)[C@H]1NC(=O)OC(C)(C)C [Compound 4377, tert-butyl ((2R,6S,7R,9R,13aS,14aR,16aS,Z)-2-((2,6-dimethoxyquinolin-3-yl)oxy)-7-ethyl-9-methyl-14a-(((1-methylcyclopropyl)sulfonyl)carbamoyl)-5,16-dioxo-1,2,3,5,6,7,8,9,10,11,13a,14,14a,15,16,16a-hexadecahydrocyclopropa[e]pyrrolo[1,2-a][1,4]diazacyclopentadecin-6-yl)carbamate]
EC50 ([1]; read-out: LE_1a (EC50, range)): 0.51 to 1 nM | EC50 ([2]; read-out: LE_1b (EC50, range)): 0.1 to 0.5 nM

COc1ccc2c(O[C@@H]3C[C@H]4C(=O)N[C@]5(C(=O)NS(=O)(=O)C6(CF)CC6)C[C@H]5/C=C\CC[C@@H](C)C[C@@H](C)[C@H](NC(=O)OC(C)(C)C(F)(F)F)C(=O)N4C3)ncc(F)c2c1 [Compound 4378]
EC50 [1, 3]: 1.01 to 5 nM | EC50 [2, 4]: 0.51 to 1 nM

CC[C@@H]1C[C@H](C)CC/C=C\[C@@H]2C[C@@]2(C(=O)NS(=O)(=O)C2(C)CC2)NC(=O)[C@@H]2C[C@@H](Oc3ncc(F)c4cc(OC)ccc34)CN2C(=O)[C@H]1NC(=O)OC(C)(C)C(F)(F)F [Compound 4379]
EC50 [1, 3]: 1.01 to 5 nM | EC50 [2, 4]: 0.51 to 1 nM

COc1ccc2c(Cl)ncc(O[C@@H]3C[C@H]4C(=O)N[C@]5(C(=O)NS(=O)(=O)C6(CF)CC6)C[C@H]5/C=C\CC[C@@H](C)C[C@@H](C)[C@H](NC(=O)OC(C)(C)C)C(=O)N4C3)c2c1 [Compound 4380]
EC50 ([1]; read-out: LE_1a (EC50, range)): 1.01 to 5 nM | EC50 ([2]; read-out: LE_1b (EC50, range)): 1.01 to 5 nM

CC[C@@H]1C[C@H](C)CC/C=C\[C@@H]2C[C@@]2(C(=O)NS(=O)(=O)C2(C)CC2)NC(=O)[C@@H]2C[C@@H](Oc3ncc(Cl)c4ccc(OC)cc34)CN2C(=O)[C@H]1NC(=O)OC(C)(C)C [Compound 4381]
EC50 ([1]; read-out: LE_1a (EC50, range)): 1.01 to 5 nM | EC50 ([2]; read-out: LE_1b (EC50, range)): 0.51 to 1 nM

COc1ccc2c(O[C@@H]3C[C@H]4C(=O)N[C@]5(C(=O)NS(=O)(=O)C6(CF)CC6)C[C@H]5/C=C\CC[C@@H](C)C[C@@H](C)[C@H](NC(=O)OC(C)(C)C)C(=O)N4C3)ncc(F)c2c1 [Compound 4382, tert-butyl ((2R,6S,7R,9R,13aS,14aR,16aS,Z)-2-((4-fluoro-6-methoxyisoquinolin-1-yl)oxy)-14a-(((1-(fluoromethyl)cyclopropyl)sulfonyl)carbamoyl)-7,9-dimethyl-5,16-dioxo-1,2,3,5,6,7,8,9,10,11,13a,14,14a,15,16,16a-hexadecahydrocyclopropa[e]pyrrolo[1,2-a][1,4]diazacyclopentadecin-6-yl)carbamate]
EC50 ([1]; read-out: LE_1a (EC50, range)): 1.01 to 5 nM | EC50 ([2]; read-out: LE_1b (EC50, range)): 0.51 to 1 nM

CC[C@@H]1C[C@H](C)CC/C=C\[C@@H]2C[C@@]2(C(=O)NS(=O)(=O)C2(C)CC2)NC(=O)[C@@H]2C[C@@H](Oc3ncc(F)c4cc(OC)ccc34)CN2C(=O)[C@H]1NC(=O)OC(C)(C)C [Compound 4383, tert-butyl ((2R,6S,7R,9R,13aS,14aR,16aS,Z)-7-ethyl-2-((4-fluoro-6-methoxyisoquinolin-1-yl)oxy)-9-methyl-14a-(((1-methylcyclopropyl)sulfonyl)carbamoyl)-5,16-dioxo-1,2,3,5,6,7,8,9,10,11,13a,14,14a,15,16,16a-hexadecahydrocyclopropa[e]pyrrolo[1,2-a][1,4]diazacyclopentadecin-6-yl)carbamate]
EC50 ([1]; read-out: LE_1a (EC50, range)): 1.01 to 5 nM | EC50 ([2]; read-out: LE_1b (EC50, range)): 0.51 to 1 nM
